Assays:
[1] = 298.15 K; 101 kPa; Liquid
[2] = xn = mol fraction of the nth substance listed; conditions: 298.15 K, 101 kPa, Liquid

NC=O [formamide]
[1]
Conditions	mass density [kg/m3]	speed of sound [m/s]
–	1128.78	1597.3

CNC=O [N-methylformamide]
[1]
Conditions	mass density [kg/m3]	speed of sound [m/s]
–	999.06	1431.9

NC=O [formamide] + O
[2]
Conditions	mass density [kg/m3]	speed of sound [m/s]
x1 = 0.01258	1001.58	1507
x1 = 0.01991	1004.13	1512.2
x1 = 0.0361	1009.48	1522.8
x1 = 0.05028	1013.93	1530.9
x1 = 0.06473	1018.25	1538.3
x1 = 0.07977	1022.53	1545.1
x1 = 0.09437	1026.49	1551
x1 = 0.1125	1031.16	1557.5
x1 = 0.1347	1036.54	1564.5
x1 = 0.1596	1042.19	1571
x1 = 0.1946	1049.41	1578.3
x1 = 0.2295	1056.08	1584.1
x1 = 0.2548	1060.55	1587.5
x1 = 0.2731	1063.6	1589.5
x1 = 0.2919	1066.61	1591.4
x1 = 0.3343	1072.9	1594.7
x1 = 0.3711	1077.91	1596.7
x1 = 0.4046	1082.13	1598.1
x1 = 0.4552	1088.06	1599.4
x1 = 0.4884	1091.6	1600
x1 = 0.5025	1093.05	1600.2
x1 = 0.5225	1094.97	1600.3
x1 = 0.5564	1098.27	1600.5
x1 = 0.595	1101.68	1600.5
x1 = 0.6298	1104.65	1600.5
x1 = 0.6714	1107.95	1600.2
x1 = 0.702	1110.28	1600
x1 = 0.723	1111.82	1599.8
x1 = 0.7544	1113.99	1599.6
x1 = 0.78	1115.76	1599.4
x1 = 0.8094	1117.67	1599.1
x1 = 0.8358	1119.42	1598.8
x1 = 0.8752	1121.79	1598.6
x1 = 0.917	1124.23	1598.2
x1 = 0.9465	1125.98	1598
x1 = 0.9702	1127.29	1597.9
x1 = 1	1128.78	1597.3

CC(=O)N(C)C [N,N-dimethylethanamide] + O
[2]
Conditions	mass density [kg/m3]	speed of sound [m/s]
x1 = 0.00083	996.94	1499.8
x1 = 0.00163	996.87	1502.4
x1 = 0.03959	995.84	1616.2
x1 = 0.055	996.37	1645.5
x1 = 0.06456	996.62	1663.2
x1 = 0.08126	997.29	1678.6
x1 = 0.1	997.94	1700.3
x1 = 0.1208	998.5	1717.9
x1 = 0.1447	998.68	1730.7
x1 = 0.1714	998.55	1737.9
x1 = 0.2012	997.61	1749.4
x1 = 0.2381	995.72	1734.5
x1 = 0.2761	992.03	1719.7
x1 = 0.3245	988.32	1703.6
x1 = 0.3783	985.12	1682.1
x1 = 0.4137	982.41	1669
x1 = 0.452	979.26	1653.4
x1 = 0.4832	975.57	1638.2
x1 = 0.5372	969.73	1605.4
x1 = 0.583	965.29	1586.8
x1 = 0.6496	959.34	1559.2
x1 = 0.7074	953.42	1534.2
x1 = 0.7633	949.72	1522
x1 = 0.8342	946.12	1489
x1 = 0.9053	940.96	1482.2
x1 = 1	936.34	1455.9

O=C1CCCN1 [2-pyrrolidinone]
[1]
Conditions	mass density [kg/m3]	speed of sound [m/s]
–	1107.52	1633.7

CN1CCCC1=O [N-methylpyrrolidone]
[1]
Conditions	mass density [kg/m3]	speed of sound [m/s]
–	1028.23	1531.5

O=C1CCCN1 [2-pyrrolidinone] + O
[2]
Conditions	mass density [kg/m3]	speed of sound [m/s]
x1 = 0.03793	1015.26	1577.4
x1 = 0.05001	1020.61	1597.6
x1 = 0.07966	1032.48	1632.1
x1 = 0.1093	1042.93	1670
x1 = 0.122	1046.78	1684.5
x1 = 0.1582	1056.77	1708
x1 = 0.1789	1062.24	1716.5
x1 = 0.2155	1070.34	1726.6
x1 = 0.2352	1074.91	1732.1
x1 = 0.2473	1077.08	1735.2
x1 = 0.2794	1081.92	1737.3
x1 = 0.3497	1088.62	1735.5
x1 = 0.4199	1093.46	1727.8
x1 = 0.5013	1097.41	1715.8
x1 = 0.549	1099.18	1708.8
x1 = 0.6133	1101.6	1698.7
x1 = 0.6705	1102.82	1683.4
x1 = 0.7037	1103.16	1678.5
x1 = 0.8117	1105.88	1658
x1 = 0.8353	1106.12	1654.6
x1 = 0.8593	1106.38	1651.3
x1 = 0.8813	1106.59	1647.9
x1 = 0.9413	1107.13	1640.7
x1 = 1	1107.52	1633.7

CN(C)C=O [dimethylformamide] + O
[2]
Conditions	mass density [kg/m3]	speed of sound [m/s]
x1 = 0.01233	996.44	1526.3
x1 = 0.0266	996.21	1555.7
x1 = 0.0276	996.23	1554.2
x1 = 0.04154	996.18	1582.3
x1 = 0.05803	996.38	1607.4
x1 = 0.07593	996.62	1628.8
x1 = 0.09542	996.84	1647.5
x1 = 0.1173	997.02	1659
x1 = 0.1412	996.93	1675.5
x1 = 0.1677	996.02	1684.6
x1 = 0.1975	995.1	1688.2
x1 = 0.23	993.87	1687.8
x1 = 0.2866	990.18	1676.6
x1 = 0.3139	989.17	1669.3
x1 = 0.3771	984.28	1647.7
x1 = 0.4247	981.19	1629.1
x1 = 0.4494	979.47	1620.3
x1 = 0.4755	977.79	1610.1
x1 = 0.4955	976.4	1599.5
x1 = 0.5203	974.98	1592
x1 = 0.5336	974.17	1585.7
x1 = 0.555	972.69	1572.1
x1 = 0.5806	970.92	1565.8
x1 = 0.6169	968.9	1559
x1 = 0.637	967.32	1550.5
x1 = 0.6551	965.83	1545.2
x1 = 0.6931	963.35	1538.2
x1 = 0.7172	961.78	1527.7
x1 = 0.7373	960.6	1519.7
x1 = 0.753	959.56	1514.8
x1 = 0.7666	958.73	1512.3
x1 = 0.8037	956.19	1504.3
x1 = 0.8126	955.54	1501.2
x1 = 0.8469	953.57	1493
x1 = 0.8694	952.12	1491.4
x1 = 0.8911	950.68	1488.4
x1 = 0.925	948.01	1476.6
x1 = 0.9661	946.28	1469.1
x1 = 1	943.94	1457.5

CN(C)C=O [dimethylformamide]
[1]
Conditions	mass density [kg/m3]	speed of sound [m/s]
–	943.94	1457.5

CC(=O)N(C)C [N,N-dimethylethanamide]
[1]
Conditions	mass density [kg/m3]	speed of sound [m/s]
–	936.34	1455.9

CNC=O [N-methylformamide] + O
[2]
Conditions	mass density [kg/m3]	speed of sound [m/s]
x1 = 0.01572	999.1	1518.7
x1 = 0.03276	1001.38	1538.8
x1 = 0.05095	1003.6	1557.2
x1 = 0.07104	1005.91	1574.1
x1 = 0.09226	1007.87	1582.7
x1 = 0.1156	1010.1	1591.3
x1 = 0.141	1011.91	1601.6
x1 = 0.1714	1013.58	1606.1
x1 = 0.2005	1014.89	1606.2
x1 = 0.2339	1015.73	1603.4
x1 = 0.2714	1016.31	1598.8
x1 = 0.3047	1016.34	1594
x1 = 0.3185	1016.28	1589.3
x1 = 0.3367	1016.3	1583.7
x1 = 0.3615	1015.86	1573
x1 = 0.3853	1015.45	1560.7
x1 = 0.4166	1014.47	1551.9
x1 = 0.4456	1013.64	1542.9
x1 = 0.4785	1012.83	1534.2
x1 = 0.5109	1011.92	1526.4
x1 = 0.5497	1010.88	1514.7
x1 = 0.5805	1010.04	1507.5
x1 = 0.5913	1009.49	1502.6
x1 = 0.6164	1008.9	1497.2
x1 = 0.6335	1008.22	1493.1
x1 = 0.681	1006.72	1480.6
x1 = 0.7323	1005.35	1469
x1 = 0.779	1004.51	1462.9
x1 = 0.8279	1003.34	1454.5
x1 = 0.8535	1002.54	1449.5
x1 = 0.8763	1001.72	1446.5
x1 = 0.917	1001.03	1441.1
x1 = 0.9285	1000.72	1440.2
x1 = 1	999.06	1431.9

CN1CCCC1=O [N-methylpyrrolidone] + O
[2]
Conditions	mass density [kg/m3]	speed of sound [m/s]
x1 = 0.02533	1004.51	1573.6
x1 = 0.06006	1014.28	1646.8
x1 = 0.08026	1020.63	1684.4
x1 = 0.1008	1025.71	1724.7
x1 = 0.1191	1030.16	1731.2
x1 = 0.1399	1034.69	1745.2
x1 = 0.1596	1038.09	1747.7
x1 = 0.1779	1040.14	1749.2
x1 = 0.1964	1041.52	1751.7
x1 = 0.2203	1042.98	1750.7
x1 = 0.2399	1044.35	1750.1
x1 = 0.2602	1045.7	1745.3
x1 = 0.278	1046	1741.8
x1 = 0.2987	1046.27	1735.4
x1 = 0.3296	1046.23	1725.6
x1 = 0.3794	1045.76	1707.8
x1 = 0.4497	1044.33	1687.1
x1 = 0.4986	1043.54	1670
x1 = 0.5494	1041.35	1651.2
x1 = 0.5978	1039.92	1633.6
x1 = 0.649	1037.65	1621
x1 = 0.6998	1035.76	1610.2
x1 = 0.7893	1032.74	1587.7
x1 = 0.8199	1031.82	1574.4
x1 = 0.8333	1031.01	1568.3
x1 = 0.8826	1030.54	1563.8
x1 = 0.8976	1029.93	1558.4
x1 = 0.9553	1028.92	1552.2
x1 = 1	1028.23	1531.5

From the NIST ThermoML archive (doi:10.1016/j.jct.2007.05.015)
